Experimental data from patent US5028727A, “Platinum-(IV)-diamine complex” (Nederlandse Organisatie Voor …, priority 1988, dated 1991).
“Also recorded” adds a separate entry of the source.

Tests used:
B16 melanoma = test: Action against B16 melanoma; assay type: in vivo, BDF1 mice; details: day 1-9
Protocol: BDF1 mice, 10 per group, are inoculated intraperitoneally with 0.5 ml of a 10% (weight/vol) homogeneous tissue suspension of B16 melanoma. Intraperitoneal treatment with the active compound was started one day after the implantation and continued daily for a total of 9 days. The control group treated with a physiological saline solution and groups treated with cis-platinum were included in each experiment. The mice were assessed daily for survival and tests were stopped after 60 days. The mean survival time of the mice treated with the active agent relative to that of the comparison (% T/C) was used as a measure for the anti-tumour action. A compound is regarded as active with a % T/C of 125%.
=Dose is mg/kg per injection administered i.p. on day 1-9

L1210 murine leukaemia = test: Activity against L1210 murine leukaemia; assay type: in vivo, CDF1 mice; details: for % T/C: once on day 1
Protocol: The platinum complex was investigated for anti-tumour action against L1210 murine leukaemia. CDF1 mice with a weight of 20 g were inoculated intraperitoneally with 10^6 ascitic cells of L1210 leukaemia. The administration of the active complex was started the day following the intraperitoneal implantation of the tumour. The complex was administered in diverse amounts by intraperitoneal injections. Groups of 6 mice were used for each dose and they were treated with a single dose of the complex on the treatment day. A group of ten control mice treated with a physiological saline solution was included in the experiment. Mice treated with cis-diamine-dichloro-platinum (cis-platinum) were included as positive comparisons. The mice were weighed before the treatment and again on the fifth or sixth day and the average change in weight was taken as a measure of the toxicity. The animals were assessed daily for mortality and the experiments were ended after 30 days. The tumour activity was determined on the basis of % T/C, which is the ratio of mean survival time of the group treated with the active complex relative to the mean survival time of the control group treated with a physiological saline solution times 100. The mice treated with physiological saline solution usually have a mean survival time of 7 days. A compound is regarded as active when this gives a T/C ≥125%.
=Dose is mg/kg administered i.p., once on day 1.

[1] = tested on: tumour cells resistant to cis-platinum (A2780/124 and A2780/DDP); test: Action against tumour cells resistant to cis-platinum; assay type: cell-based, human
Protocol: For cis-platinum the corresponding values are 10 and 12.6 respectively.
(§1) Logarithmically growing cells were harvested by mild trypsinisation and 4,000 cells were added to a microtitre plate with 96 wells (Costar). […] Formalin (10%) in a phosphate-buffered physiological saline solution was added and the cells were fixed for 10 minutes.

A2780/124 = test: In vitro cytotoxicity, A2780/124 sub-line resistant to cis-platinum; assay type: cell-based, human; details: for IC50: A2780/124, 72 hours incubation, crystal violet
Protocol: as §1

B16-F10 murine melanoma = test: In vitro cytotoxicity, B16-F10 murine melanoma; assay type: cell-based; details: 72 hours incubation, crystal violet
Protocol: as §1

M5076 sarcoma = test: Action against subcutaneously implanted M5076 sarcoma; assay type: in vivo, BDF1 mice; details: day 5, 9, 13 and 17
Protocol: The complex was also assessed for anti-tumour action against subcutaneously implanted M5076 sarcoma. BDF1 mice, 8 per group, were inoculated subcutaneously with a fragment of a M5076 tumour. The mice were treated intravenously starting 5 days after the implantation and again on days 9, 13 and 17. […] Four doses of the complex were tested. A comparison group treated with physiological saline solution and groups treated with cis-platinum are included in this experiment. The mice were assessed daily for survival and the tests were ended after 75 to 80 days.

[2] = tested on: A2780 human ovary carcinoma; test: In vitro cytotoxicity, A2780 human ovary carcinoma; assay type: cell-based; details: 72 hours incubation, crystal violet
Protocol: as §1

A2780/DDP = test: In vitro cytotoxicity, A2780/DDP sub-line resistant to cis-platinum; assay type: cell-based, human; details: for IC50: A2780/DDP, 72 hours incubation, crystal violet
Protocol: as §1

[3] = tested on: HCT-116 human colon carcinoma; test: In vitro cytotoxicity, HCT-116 human colon carcinoma; assay type: cell-based; details: HCT116; 72 hours incubation; crystal violet
Protocol: as §1

tumours = details: Rosenberg et al., Nature 222 (1969); cited from earlier work
[4] = resistance criterion: ratio ≥4.0

| SMILES | % T/C (B16 melanoma; 0.4 mg/kg per injection i.p.) | % T/C (B16 melanoma; 0.8 mg/kg per injection i.p.) | % T/C (B16 melanoma; 1.6 mg/kg per injection i.p.) | % T/C (B16 melanoma; 2.4 mg/kg per injection i.p.) | % T/C (L1210 murine leukaemia; 4 mg/kg i.p.) | % T/C (L1210 murine leukaemia; 6 mg/kg i.p.) | % T/C (L1210 murine leukaemia; 8 mg/kg i.p.) | IC50 (A2780/124) | IC50 (B16-F10 murine melanoma) | % T/C (M5076 sarcoma; 3 mg/kg i.v.) | % T/C (M5076 sarcoma; 4 mg/kg i.v.) | IC50 [2] | IC50 (A2780/DDP) | IC50 [3] | also measured |
| --- | --- | --- | --- | --- | --- | --- | --- | --- | --- | --- | --- | --- | --- | --- | --- |
| NCC1(CN)CCCC1.O=S(=O)([O-])[O-].[Cl][Pt+2][Cl] [TNO-40, Cis-sulphato-trans-dichloro-1,1-bis(aminomethyl)cyclopentane-platinum-(IV)] | 137% | 163% | 139% | 83% | 193% | 186% | 180% | 21 µg/mL | 7.4 µg/mL | 126% | 125% | 6.4 µg/mL | 23 µg/mL | 16 µg/mL | % T/C (B16 melanoma; 0.2 mg/kg per injection i.p.): 127%; % T/C (L1210 murine leukaemia; 2,5 mg/kg i.p.): 179%; anti-tumour action against L1210 murine leukaemia (L1210 murine leukaemia; active = T/C ≥125%, all doses investigated): active at all doses investigated; action against cell lines resistant to cis-platinum [1]: exhibits an anti-tumor action; also recorded: surprisingly good action; toxicity (M5076 sarcoma; 5 mg/kg i.v.): toxic; toxicity (M5076 sarcoma; 6 mg/kg i.v.): toxic |
| N.N.[Cl][Pt][Cl] [Cis-platinum, cis-diamine-dichloroplatinum] | 117% | 137% | 171% | 146% | 131% | 138% | 131% | 23 µg/mL | 9.8 µg/mL | 134% | 135% | 2.3 µg/mL | 28 µg/mL | 8.5 µg/mL | % T/C (L1210 murine leukaemia; 10 mg/kg i.p.): 138%; ratio IC50 A2780/124 to IC50 A2780 (A2780/124; [4]): 10; T-C (mean time for tumours to reach 1 gram, treated relative to untreated) (M5076 sarcoma; 3 mg/kg i.v.): 18.3 days; T-C (mean time for tumours to reach 1 gram, treated relative to untreated) (M5076 sarcoma; 4 mg/kg i.v.): 16.3 days; % T/C (M5076 sarcoma; 5 mg/kg i.v.): 131%; T-C (mean time for tumours to reach 1 gram, treated relative to untreated) (M5076 sarcoma; 5 mg/kg i.v.): 20.5 days; % T/C (M5076 sarcoma; 6 mg/kg i.v.): 121%; T-C (mean time for tumours to reach 1 gram, treated relative to untreated) (M5076 sarcoma; 6 mg/kg i.v.): 20 days; anti-tumour activity (tumours): very strong anti-tumour activity; ratio IC50 A2780/DDP to IC50 A2780 (A2780/DDP; [4]): 12.6 |
